Where no end group is shown, it is not given here.
Tests used:
[1] = tested on: HA(107-119) TCR transgenic Foxp3GFP-reporter T cells; experiment: in vivo HA-specific Treg conversion, congenic adoptive-transfer system; set-up: species or system mouse; settings: injection of mTOR-inhibitor
Protocol: (b) In vivo conversion of naïve CD4+CD25-T cells expressing a transgenic TCR of interest into Treg cells using a congenic transfer system. HA(107-119)TCR transgenic CD4+/Foxp3-/GFP Thy1.1+ cells are transferred iv into a host such as a Balb/c thy1.2+ mouse. A to single dose of a covalent conjugate of […] fusion antibody is administered ip. Analysis of Foxp3 expression in CD4-enriched Thy1.1+ spleenocytes and lymph nodes is conducted after 14 days flow cytometrically.
For the exploitation of antigen-specific Treg induction to interfere with unwanted immunity as diabetes the inventors performed optimization studies in order to achieve stable de novo differentiation of naive T cells into Tregs in sufficient numbers. Therefore we aimed at using combinations of compounds that enhance conversion, selectively expand the generated Tregs and allow for maintenance of the Treg phenotype. […] To induce rapid expansion of these Tregs the inventors injected the mice with IL-2 mixed with an optimized amount of a particular IL-2 monoclonal antibody (IL-2/IL-2 ab complexes) for a short period of 3 days at the end of the conversion period. […] Moreover, these Tregs were stable and persisted over a period of 4 months, which is an important feature as it allows for prospective induction to suppress unwanted immune responses.

IAu = target: T1, IAu (Mus musculus, UniProt P06344+P14438); settings: presented by IAu; cited from earlier work
T1 sequence (P14438 1-227): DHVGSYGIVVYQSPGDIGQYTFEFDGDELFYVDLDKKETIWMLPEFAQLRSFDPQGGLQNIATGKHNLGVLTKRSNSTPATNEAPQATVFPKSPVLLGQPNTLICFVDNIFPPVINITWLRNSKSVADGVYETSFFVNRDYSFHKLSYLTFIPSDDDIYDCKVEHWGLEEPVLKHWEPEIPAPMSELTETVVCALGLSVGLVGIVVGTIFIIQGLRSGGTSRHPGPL
T1 sequence (P06344 28-263): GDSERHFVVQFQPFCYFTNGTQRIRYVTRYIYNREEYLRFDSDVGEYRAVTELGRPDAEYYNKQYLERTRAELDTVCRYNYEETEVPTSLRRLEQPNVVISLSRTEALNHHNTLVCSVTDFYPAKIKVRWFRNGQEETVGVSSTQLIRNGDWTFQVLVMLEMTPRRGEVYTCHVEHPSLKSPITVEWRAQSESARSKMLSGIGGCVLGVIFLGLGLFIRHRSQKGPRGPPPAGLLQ

IAg^7 [2] = experiment: peptide binding to MHC class II IAg7; set-up: species or system mouse; settings: MHC class II IAg^7
Description: The natural Insulin B:9-23 peptide is known to be associated with Type I diabetes. This peptide binds with poor affinity to IAg^7 in multiple binding registers.
Chromogranin A was recently identified as the antigenic source of the highly pathogenic BDC2.5 T cell clone associated with Type I diabetes. WE14 is naturally processed from Chromogranin A by a furin-like protease. […] Studies have shown that this epitope only partially fills the peptide binding groove.
(§1) The inventors performed similar protocols of antigen-specific Treg conversion studies to prevent the development of spontaneous diabetes in NOD mice by injecting DEC205 fusion antibodies that contain the beta chain of insulin. […] The inventors hypothesized that weak epitopes may fail to induce efficient Treg conversion, and we initiated studies using Insulin B:9-23 TCR transgenic mice and identified in T cell proliferation assays insulin mimetopes that stimulate better than the Insulin B:9-23 peptide itself because of an increased binding capacity to MHC class II IAg^7, compared to the aforementioned Insulin B:9-23 peptide. In fact such mimetopes achieved better conversion of naive T cells expressing the transgenic TCR. […]

NOD InsB:9-23 Tg T cells = experiment: thymidine incorporation T cell proliferation assay; assay type: cell-based, mouse; settings: Insulin B:9-23 TCR transgenic T cells
Description: A key feature of the adaptive immune response is the ability of antigen-specific T cells to rapidly proliferate following antigenic-stimulation. Assays to assess the proliferative activity of antigen-specific T cells are a core tool to allow for evaluation of TCR- and MHC-binding properties based on the growth rate of the T cell populations after stimulation with a defined amount of antigen. A historically established assay is the detection of tritiated thymidine ^3H uptake. Therefore CD4+ T-cells from Rag def. NOD mice expressing a transgenic TCR for the a peptide of interest (e.g., Insulin B 9:23 peptide) are isolated by the use of a magnetic bead separation approach. Purified CD11^+DCs from normal NOD mice are used as antigen-presenting cells and irradiated. To induce proliferation of antigen-specific CD4^+ T cells, co-cultures are set up with naïve Insulin-specific CD4^+ T cells in 200 μl RPMI1640 medium supplemented with 10% (vol/vol) FCS in 96-well round-bottomed plates. Soluble peptides (e.g., natural InsulinB9:23 peptide) or mimetopes (e.g., Insulin mimetopes) are added to the cultures in various concentration (10 μg/ml to 0.01 μg/ml). Analysis of proliferation of antigen-specific T cells is performed by incorporation of ^3H-thymidine added for the last 12 hours of a 70 hours culture period followed by scintillation counting. […]

[3] = tested on: T cells with a specific transgenic TCR for the K^d54-68 peptide; settings: cited from earlier work
IAg^7 [4] = settings: cited from earlier work
BDC2.5 T cells = settings: cited from earlier work
NOD mice = experiment: prevention of spontaneous diabetes in NOD mice; assay type: in vivo, mouse; settings: injection into young NOD mice
Description: The inventors have been successful in inducing HY-specific Treg from naIve T cells in wt female B6 mice that were infused with HY-peptide and visualized with HY-peptide, class II tetramers (1). However, a similar approach to prevent diabetes in NOD mice by injecting insulin B:9-23 peptide into young NOD mice failed.
as §1, with “TCR. The inventors then studied the impact of these insulin-derived mimetopes in young NOD mice on diabetes development via subimmunogenic peptide delivery using either newly designed DEC205 peptide fusion antibodies (see description below) or peptide-infusing mini-osmotic pumps.” for “TCR.”

Molecule: CO[C@H]1C[C@@H]2CC[C@@H](C)[C@@](O)(O2)C(=O)C(=O)N2CCCC[C@H]2C(=O)O[C@H]([C@H](C)C[C@@H]2CC[C@@H](OCCO)[C@H](OC)C2)CC(=O)[C@H](C)/C=C(\C)[C@@H](O)[C@@H](OC)C(=O)[C@H](C)C[C@H](C)/C=C/C=C/C=C/1C [Everolimus]
- frequency of newly generated HA-specific Foxp3+ Tregs [1]: substantially increases

Molecule: Act-11 MBP: SEQ ID NO: 8, Ac-ASQKRPSQRHG; acetylated N-terminal myelin basic protein epitope
- epitope strength (IAu): weak epitope

Molecule: InsMim3 peptide mimetope: SEQ ID NO: 2, VEALYLVCGEEG; insulin mimetope, p9 Arginine exchanged to Glutamic acid (InsMim3 peptide mimetope)
- MHC binding compared with natural Insulin B:9-23 peptide (IAg^7 [2]): enhanced MHC binding
- stimulation of T cells compared with natural Insulin B:9-23 peptide (NOD InsB:9-23 Tg T cells): better stimulation of T cells

Molecule: K^d54-68 peptide: SEQ ID NO: 6, QEGPEYWEEQTQRAK; MHC class I derived processed peptide presented by IAb (Kd 54-68 peptide)
- agonist strength ([3]; MHC-derived transplantation antigen): weak agonist
- proliferation of specific TCR transgenic T cells ([3]; dendritic cells pulsed with peptide): not able to stimulate the proliferation

Molecule: WE14: SEQ ID NO: 4, WSRMDQLAKELTAE; naturally processed from Chromogranin A (WE14 peptide)
- binding to IAg^7 (MHC-binding) (IAg^7 [4]): weakly
- stimulation of BDC2.5 T cells (BDC2.5 T cells): poor stimulation

Molecule: natural Insulin B:9-23 peptide: SEQ ID NO: 1, SHLVEALYLVCGERG; natural peptide associated with Type I diabetes (Insulin B peptide)
- binding to IAg^7 (MHC-binding) (IAg^7 [4]): poor affinity
- prevention of diabetes (NOD mice): failed

Molecule: pS3 peptide: SEQ ID NO: 5, RLGLWVRME; strong stimulating mimetope of WE14 (pS3 peptide mimetope)
- binding to IAg^7 (MHC-binding) (IAg^7 [4]): improved MHC-binding
- stimulation of BDC2.5 T cells (BDC2.5 T cells): strong stimulating mimetope

— US20160175412A1, “PREVENTION OF TYPE 1 DIABETES BY TREG VACCINATION WITH AN INSULIN MIMETOPE” (DANA-FARBER CANCER INSTITUTE, INC., priority 2010, published 2016)
